The values below are quoted from earlier work in patent publication US20250170148A1, “NEUROACTIVE STEROIDS FOR TREATMENT OF GASTROINTESTINAL DISEASES OR CONDITIONS” (Sage Therapeutics, Inc., priority 2022, published 2025).

The structures appear in SMILES notation. “Also recorded” adds a separate entry of the source. Like-named read-outs stand apart in the source and are kept apart here.

The test system of data set [1] is patients with major depressive disorder. The note with it: meta-analysis; for rate of gastrointestinal adverse reactions compared to placebo: 15 most commonly used antidepressants in MDD; for gastrointestinal tolerability among antidepressants: patients with MDD.

On to `Cc1ccc(Sc2ccccc2N2CCNCC2)c(C)c1` [vortioxetine], for which the “rate of gastrointestinal adverse reactions compared to placebo” value (from here on “rate … compared to placebo”) in data set [1] is “higher rates of gastrointestinal adverse reactions compared to placebo”.

In the case of `CN[C@H]1CC[C@@H](c2ccc(Cl)c(Cl)c2)c2ccccc21` [sertraline], in data set [1], the “rate … compared to placebo” value is “higher rates of gastrointestinal adverse reactions compared to placebo” and the “gastrointestinal tolerability among antidepressants” value was “least tolerated antidepressants on the gastrointestinal tract; also recorded: least tolerated antidepressants on the GI tract”. In addition, for the setting “compared to other SSRIs and venlafaxine”, the incidence of diarrhea entry is given as “higher incidence of diarrhea”.

Turning to `Fc1ccc([C@@H]2CCNC[C@H]2COc2ccc3c(c2)OCO3)cc1` [paroxetine], in data set [1], the “rate … compared to placebo” value is listed as “higher rates of gastrointestinal adverse reactions compared to placebo”.

As for `COc1ccc2cccc(CCNC(C)=O)c2c1` [agomelatine], the “rate … compared to placebo” value in data set [1] was “higher rates of gastrointestinal adverse reactions compared to placebo”.

Consider `CN(C)CCCC1(c2ccc(F)cc2)OCc2cc(C#N)ccc21` (centres unmarked) [citalopram], for which the “rate … compared to placebo” value in data set [1] is listed as “higher rates of gastrointestinal adverse reactions compared to placebo”.

In the case of `CN(C)CCC[C@@]1(c2ccc(F)cc2)OCc2cc(C#N)ccc21` [escitalopram], in data set [1], the “rate … compared to placebo” value is “higher rates of gastrointestinal adverse reactions compared to placebo” and the “gastrointestinal tolerability among antidepressants” value is reported as “least tolerated antidepressants on the gastrointestinal tract”. Also, the “gastrointestinal tolerability among antidepressants” value in data set [1] (listed as Escitalopram) is listed as “least tolerated antidepressants on the GI tract”.

Turning to `CCN(CC)C(=O)[C@@]1(c2ccccc2)C[C@H]1CN` [levomilnacipran], the “rate … compared to placebo” value in data set [1] was “higher rates of gastrointestinal adverse reactions compared to placebo”.

Regarding `CNCC[C@H](Oc1cccc2ccccc12)c1cccs1` [duloxetine], the “rate … compared to placebo” value in data set [1] is “higher rates of gastrointestinal adverse reactions compared to placebo”.

As to `CC(NC(C)(C)C)C(=O)c1cccc(Cl)c1` (centres unmarked) [bupropion], the “rate … compared to placebo” value in data set [1] is “higher rates of gastrointestinal adverse reactions compared to placebo”.

With `CN(C)CC(c1ccc(O)cc1)C1(O)CCCCC1` (centres unmarked) [desvenlafaxine], the “rate … compared to placebo” value in data set [1] is “higher rates of gastrointestinal adverse reactions compared to placebo”.

With `CNCCC(Oc1ccc(C(F)(F)F)cc1)c1ccccc1` (centres unmarked) [fluoxetine], the “rate … compared to placebo” value in data set [1] is on record as “higher rates of gastrointestinal adverse reactions compared to placebo”.

For the molecule `CN1CCN2c3ncccc3Cc3ccccc3C2C1` (centres unmarked) [mirtazapine], the “rate … compared to placebo” value in data set [1] is reported as “higher rates of gastrointestinal adverse reactions compared to placebo”.

As for `COc1ccc(C(CN(C)C)C2(O)CCCCC2)cc1` (centres unmarked) [venlafaxine], the “rate … compared to placebo” value in data set [1] is on record as “higher rates of gastrointestinal adverse reactions compared to placebo”. In addition, the “rates of nausea and vomiting” value (compared to SSRIs and duloxetine) is “higher rates of nausea and vomiting”.

Consider `CCOc1ccccc1OC(c1ccccc1)C1CNCCO1` (centres unmarked) [reboxetine], for which the “rate … compared to placebo” value in data set [1] is given as “higher rates of gastrointestinal adverse reactions compared to placebo”.

As for `COCCCC/C(=N\OCCN)c1ccc(C(F)(F)F)cc1` [fluvoxamine], the “rate … compared to placebo” value in data set [1] is reported as “higher rates of gastrointestinal adverse reactions compared to placebo”.
